According to ChEMBL document CHEMBL1275276, “Analysis of physico-chemical properties of substrates of ABC and MFS multidrug transporters of pathogenic Candida albicans” (2010):
Activity calls are given as the source filed them. How the calls were made is not given here.

Experiments:
Candida albicans [1] = assay: Binding affinity to Candida albicans CaCdr1p expressed in yeast AD1-8u
Saccharomyces cerevisiae [2] = assay: Antifungal activity against yeast AD1-8u expressing Candida albicans CaMdr1p by agar disk diffusion assay; type: functional; further: test concentration or dose not given here
Candida albicans [3] = assay: Binding affinity to Candida albicans CaMdr1p expressed in yeast AD1-8u
Saccharomyces cerevisiae [4] = assay: Antifungal activity against yeast AD1-8u expressing Candida albicans CaCdr1p by agar disk diffusion assay; type: functional
Wherever IZ is given: test concentration or dose not given here.

Row | SMILES | Activity (Candida albicans [1]) | inhibition zone (IZ) (Saccharomyces cerevisiae [2]) [cm] | Activity (Candida albicans [3]) | inhibition zone (IZ) (Saccharomyces cerevisiae [4]) [cm]
1 | CCCCCCCCCCCC[N+](C)(C)CCCS(=O)(=O)[O-] | inactive | 0.8 | Active | 0.2
2 | NC[C@H]1O[C@H](O[C@H]2[C@H](O)[C@@H](O[C@H]3O[C@H](CO)[C@@H](O)[C@H](N)[C@H]3O)[C@H](N)C[C@@H]2N)[C@H](O)[C@@H](O)[C@@H]1O [KANAMYCIN] | inactive | 0.3 | Active | 0.1
3 | CCN(CC)C(=S)SSC(=S)N(CC)CC | Active | 0.3 | Active | 0.4
4 | Clc1ccccc1C(c1ccccc1)(c1ccccc1)n1ccnc1 [CLOTRIMAZOLE] | Active | 0 | inactive | 0.7
5 | C[C@@H](c1ncncc1F)[C@](O)(Cn1cncn1)c1ccc(F)cc1F [VORICONAZOLE] | Active | 0.8 | Active | 1.9
6 | CCCCCCCCCCCC(=O)OCCN(C)C | Active | 0.2 | inactive | 0.4
7 | C=C[C@H]1CN2CC[C@H]1C[C@@H]2[C@@H](O)c1ccnc2ccc(OC)cc12 [QUINIDINE] | Active | 0.8 | Active | 0.8
8 | C[C@@H]1C[C@@H]([C@H](O)CC2CC(=O)NC(=O)C2)C(=O)[C@@H](C)C1 [CYCLOHEXIMIDE] | Active | 0.8 | Active | 1.2
9 | COc1ccc(C[C@H]2NC[C@H](O)[C@H]2OC(C)=O)cc1 [ANISOMYCIN] | Active | 0.7 | Active | 0.9
10 | COC(=O)[C@@H]1[C@H]2C[C@H]3c4[nH]c5ccccc5c4CCN3C[C@@H]2CC[C@@H]1O.Cl [YOHIMBINE HYDROCHLORIDE] | Active | 1.3 | Active | 1.3
11 | CCC(C)n1ncn(-c2ccc(N3CCN(c4ccc(OCC5COC(Cn6cncn6)(c6ccc(Cl)cc6Cl)O5)cc4)CC3)cc2)c1=O (stereo unspecified) [ITRACONAZOLE] | Active | 0 | inactive | 1.1
12 | N#CC(C#N)=NNc1cccc(Cl)c1 [CARBONYL CYANIDE M-CHLOROPHENYLHYDRAZONE] | inactive | 0 | inactive | 0
13 | CC/C(=C(\c1ccccc1)c1ccc(OCCN(C)C)cc1)c1ccccc1 [TAMOXIFEN] | Active | 0.2 | inactive | 0.7
14 | CN(C)C(=O)Nc1ccc(Cl)c(Cl)c1 [DCMU] | Active | 0.8 | Active | 0.8
15 | COc1cccc2c1C(=O)c1c(O)c3c(c(O)c1C2=O)C[C@@](O)(C(C)=O)C[C@@H]3O[C@H]1C[C@H](N)[C@H](O)[C@H](C)O1 [DAUNORUBICIN] | Active | 0 | inactive | 0.5
16 | Nc1nc(=O)[nH]cc1F [FLUCYTOSINE] | inactive | 0 | inactive | 0

Row | SMILES | Activity (Candida albicans [1]) | inhibition zone (IZ) (Saccharomyces cerevisiae [2]) [cm] | Activity (Candida albicans [3]) | inhibition zone (IZ) (Saccharomyces cerevisiae [4]) [cm]
17 | COc1c(C)c2c(c(O)c1C/C=C(\C)CCC(=O)O)C(=O)OC2 [MYCOPHENOLIC ACID] | inactive | 0 | inactive | 0
18 | COC(=O)C1=C(C)NC(C)=C(C(=O)OCCCN2CCC(c3ccccc3)(c3ccccc3)CC2)[C@H]1c1cccc([N+](=O)[O-])c1 [NIGULDIPINE] | Active | 0.2 | inactive | 0.5
19 | CON(C)C(=O)Nc1ccc(Br)c(Cl)c1 [CHLORBROMURON] | Active | 0.1 | inactive | 0.9
20 | C[C@]12CC[C@@H]3c4ccc(OS(=O)(=O)O)cc4CC[C@H]3[C@@H]1CCC2=O [ESTRONE SULFURIC ACID] | inactive | 0 | inactive | 0
21 | COC(=O)c1ccccc1-c1c2ccc(=N)cc-2oc2cc(N)ccc12.Cl [RHODAMINE123] | Active | 0.1 | inactive | 1
22 | CCCCCCCCCCCC(=O)OCCN(CC)CC | inactive | 0.7 | Active | 0.2
23 | CCC(=O)Nc1ccc(Cl)c(Cl)c1 [PROPANIL] | Active | 0.9 | Active | 0.3
24 | COCCOC(=O)C1=C(C)NC(C)=C(C(=O)OC(C)C)C1c1cccc([N+](=O)[O-])c1 (stereo unspecified) [NIMODIPINE] | inactive | 0 | inactive | 0
25 | CCCCCCCCCCCCCC(=O)OCCN(C)C | inactive | 0 | inactive | 0
26 | CCCCNC(=O)n1c(NC(=O)OC)nc2ccccc21 [BENOMYL] | Active | 0.4 | Active | 0.9
27 | O=C1c2c(O)ccc(O)c2C(=O)c2c(NCCNCCO)ccc(NCCNCCO)c21 [MITOXANTRONE] | inactive | 0.3 | Active | 0.2
28 | COc1cc([C@@H]2c3cc4c(cc3[C@@H](O[C@@H]3O[C@@H]5CO[C@@H](C)O[C@H]5[C@H](O)[C@H]3O)[C@H]3COC(=O)[C@H]23)OCO4)cc(OC)c1O [ETOPOSIDE] | Active | 0.3 | Active | 1.5
29 | COc1cccc2c1C(=O)c1c(O)c3c(c(O)c1C2=O)C[C@@](O)(C(=O)CO)C[C@@H]3O[C@H]1C[C@H](N)[C@H](O)[C@H](C)O1 [DOXORUBICIN] | Active | 0.3 | Active | 0.4
30 | COc1cc2ncnc(Nc3ccc(F)c(Cl)c3)c2cc1OCCCN1CCOCC1 [GEFITINIB] | Active | 0.2 | inactive | 
31 | CC(=O)N1CCN(c2ccc(OCC3COC(Cn4ccnc4)(c4ccc(Cl)cc4Cl)O3)cc2)CC1 (stereo unspecified) [KETOCONAZOLE] | Active |  |  | 1.4
